Data published in publication PMC3985299, “Single Ascending Dose Safety and Pharmacokinetics of CDRI-97/78: First-in-Human Study of a Novel Antimalarial Drug” (Malaria Research and Treatment, 2014).
“Also recorded” adds a separate entry of the source.

Columns and labels:
healthy human volunteers [1] = experiment: Single ascending dose study: clinical parameters (blood pressure, pulse rate, respiratory rate, corrected QT); assay type: in vivo; set-up: SBP / DBP: unit not given here; conditions: for DBP / SBP: 2 hours after drug administration; for Diastolic blood pressure: 600 and 700 mg group
Text: The volunteers after giving informed consent were screened. The screening process was done latest within 1 month of admission for dosing. The volunteers who fulfilled the inclusion/exclusion criteria were admitted in the CPU the night before drug administration. Standardized dinner was served at 9 pm the night prior to dosing. On day 0, baseline blood sample for biochemical and haematological examination and stool and urine samples for routine and microscopy were taken. They received the study drug, according to the randomization sequence, under supervision. The empty packaging was returned to the container. The volunteers received drug as per randomization. Breakfast was given half an hour after drug administration. Subsequently, standardized lunch and dinner were served to the volunteers.
The subjects were attached to a cardiac monitor and vital HR, BP, ECG, oxygen saturation, and RR were recorded. Corrected QT interval using Fridericia's formula was calculated. Adverse events were assessed at specific time points (0.5, 1, 2, 4, 6, 8, 12, and 24 hrs after medication). Unscheduled monitoring was undertaken whenever it felt necessary. The volunteers were discharged after 24 hrs and they had to return at 48 hrs and on the 7th day for follow-up. At the end of the 7th day, they were said to have completed the study. Routine haematological and biochemical investigations were performed at 0 hr, 24 hrs after drug administration, and on day 7. The study was monitored by a Data Safety Monitoring Board.

healthy human volunteers [2] = experiment: Single ascending dose study: haematological parameters; assay type: in vivo; conditions: 400 mg
Text: The study was approved by the Institute's Ethics Committee. The single ascending dose study and the pharmacokinetic study are registered with Central Trial Registry of India (CTRI/2012/07/002812; CTRI/2012/07/002832). Normal healthy male volunteers in the age group of 18–45 years were invited to join the trial. A detailed informed consent process of the volunteers was undertaken and screening of the volunteers was done after obtaining informed consent. They were recruited through contacts and hospital employees were excluded. The health status of the volunteers was determined by taking medical history, physical examination, routine haematology (haemoglobin, total lymphocyte count, differential count, and platelet count), clinical biochemistry (serum glutamic oxaloacetic transaminase (SGOT), serum glutamic pyruvic transaminase (SGPT), serum bilirubin, serum creatinine, blood urea, serum electrolytes, random blood sugar, total protein, and serum lipid profile), and urine and stool analysis (routine examination and microscopy). The volunteers were asked to report to the study site after 12 hours of fasting for the blood tests. Chest X-ray and 12-lead ECG were also taken. The participants were also screened for human immunodeficiency virus (HIV) and hepatitis B. The volunteers after giving informed consent were screened. The screening process was done latest within 1 month of admission for dosing. The volunteers who fulfilled the inclusion/exclusion criteria were admitted in the CPU the night before drug administration. Standardized dinner was served at 9 pm the night prior to dosing. On day 0, baseline blood sample for biochemical and haematological examination and stool and urine samples for routine and microscopy were taken. […] The subjects were attached to a cardiac monitor and vital HR, BP, ECG, oxygen saturation, and RR were recorded. Corrected QT interval using Fridericia's formula was calculated. Adverse events were assessed at specific time points (0.5, 1, 2, 4, 6, 8, 12, and 24 hrs after medication). […] The study was monitored by a Data Safety Monitoring Board.

[3] = Single oral dose (200 mg) pharmacokinetic study, plasma LC-MS/MS, noncompartmental analysis; assay type: in vivo, human; conditions: oral 200 mg
Experimental: For pharmacokinetic (PK) study, eligible participants were admitted and housed in the clinical pharmacology unit an evening prior to the PK study. A standard dinner was served and a fasting condition for at least 10 hrs prior to dosing and 4 hrs after dosing was ensured. A peripheral forearm vein was cannulated for sampling for the PK analysis. 200 mg of the study drug was administered with 300 mL of water. The time of actual dose administration to the nearest minute was recorded. 2.5 mL of blood was collected from the indwelling cannula at 0 (before dose), 0.25, 0.5, 0.75, 1, 1.5, 2, 4, 6, 8, 12, 18, 24, 48, 72, 96, 120, and 144 hrs (after dose). 10 mL of additional blood was collected at 0 (before dose) and 24 hr (after dose) for laboratory parameters for safety assessment and PK control sample. A time window of ±2 minutes was permitted for collecting the post dose samples from the scheduled time for PK analysis. Plasma was separated from blood sample intended for PK analysis, within 1 hour of blood sampling, by centrifugation at 2000 rpm for 10 min at 4°C. Samples were stored at −80°C pending transportation. Heparinised blood samples were transported to the laboratory within 7 days of collection. Quantitative analyses of clinical phase ascending dose and single dose PKs samples were done at GLP lab of Pharmacokinetics and Metabolism Division, CDRI, Lucknow, India. α-Arteether was used as an internal standard and all the analyses were performed as per the published method by Singh et al. 2009 [19]. Acceptance criteria for analytical runs were fixed as per internationally approved guidelines. Data acquisition and quantitation were performed using analyst software version 1.4 (Applied Biosystems, MDS SCIEX Toronto, Canada). PK parameters were estimated by using WinNonlin software (Version 1.5, Pharsight Corporation, Mountain View, CA). Oral data were best fitted in noncompartmental model. The individual plasma concentration-time profiles were subjected to noncompartmental analysis to determine various PK parameters. The PK parameters included the terminal elimination half-life (T 1/2), maximum plasma concentration (C max), time to reach maximum plasma concentration (T max), area under the curve (AUC0–∞), and mean residence time (MRT).

Work on `C=C(c1ccc(OC(C)(C)COC(=O)CCC(=O)O)cc1)C1COC2(OO1)C1CC3CC(C1)CC2C3` (centres unmarked) [CDRI 97/78, Mono[2methyl2[3(1spiro[tricycle[3.3.1.13,7]decane2,3′-[1,2,4]trioxan] 6′-ylethenyl)phenoxy]propyl] ester] yielded a DBP (healthy human volunteers [1]; 80 mg) of 73 ± 5.21, an SBP (healthy human volunteers [1]; 80 mg) of 112.17 ± 6.24 and a DBP (healthy human volunteers [1]; 160 mg) of 77.17 ± 8.06. It also gave an SBP (healthy human volunteers [1]; 160 mg) of 119.5 ± 5.17, a DBP (healthy human volunteers [1]; 320 mg) of 82.33 ± 4.68 and an SBP (healthy human volunteers [1]; 320 mg) of 127.5 ± 6.38. The DBP (healthy human volunteers [1]; 400 mg) was 71.33 ± 8.19, the SBP (healthy human volunteers [1]; 400 mg) was 111.83 ± 7.91 and the DBP (healthy human volunteers [1]; 500 mg) was 71.83 ± 7.81. The SBP (healthy human volunteers [1]; 500 mg) was 114.5 ± 8.34, the DBP (healthy human volunteers [1]; 600 mg) was 66.5 ± 6.53 and the SBP (healthy human volunteers [1]; 600 mg) was 112.83 ± 6.18. For the same molecule, the DBP (healthy human volunteers [1]; 700 mg) was 69 ± 8.48, the SBP (healthy human volunteers [1]; 700 mg) was 115.5 ± 2.12 and the “Corrected QT interval (Fridericia), change within treatment groups” value (healthy human volunteers [1]; 80-700 mg groups) was “no statistically or clinically significant difference; also recorded: No clinically meaningful alteration”. It also gave a Diastolic blood pressure (healthy human volunteers [1]; 0 hours) of 76.87 ± 8.74 mmHg, a Diastolic blood pressure (healthy human volunteers [1]; 0.5 hours) of 78.37 ± 8.86 mmHg and a Diastolic blood pressure (healthy human volunteers [1]; 1 hours) of 79.25 ± 13.46 mmHg. It also gave a Diastolic blood pressure (healthy human volunteers [1]; 2 hours) of 67.12 ± 6.49 mmHg, a Diastolic blood pressure (healthy human volunteers [1]; 4 hours) of 73.12 ± 12.32 mmHg and a Diastolic blood pressure (healthy human volunteers [1]; 6 hours) of 75.87 ± 8.11 mmHg. For the same molecule, the Diastolic blood pressure (healthy human volunteers [1]; 8 hours) was 74 ± 11 mmHg, the Diastolic blood pressure (healthy human volunteers [1]; 12 hours) was 75 ± 10.03 mmHg and the “Pulse rate, respiratory rate and systolic blood pressure, change compared to baseline” value (healthy human volunteers [1]; any time point, all treatment groups) was “None of the treatment groups demonstrated a significant alteration”. For the same molecule, the Hemoglobin (healthy human volunteers [2]; 7th day) was 14.35 ± 1.10 gm%, the Hemoglobin (healthy human volunteers [2]; 24 hr) was 14.92 ± 0.94 gm% and the Hemoglobin (healthy human volunteers [2]; baseline) was 14.25 ± 0.75 gm%. The Absorption [3] was “rapidly absorbed” and the “Plasma concentration of parent molecule” value ([3]; most of the volunteers) was “below the limit of quantitation”.
